Experimental findings from US7745390B2, “Antimicrobial peptides” (priority 2005, dated 2010) are described below.

A word on the IC50: it is the concentration at which inhibition is half-maximal. Lower therefore signals greater potency in that assay.

Assay [1] relates to B. cereus. It counts as cell-based. As to conditions: pH 7.2. The protocol: (§1) The experiments described above characterizing the activity of granulysin peptides G1-G18 relied on counting bacterial colonies on plates. This assay is quite labor intensive and would not allow evaluation of many different compounds on a number of different microbes. Therefore, we optimized an assay in which the entire procedure could be completed in a single microtiter well. Briefly, peptides are diluted in 10 mM phosphate buffer, pH 7.2 supplemented with 0.03% LB (J. Sambrook, D. W. Russell, Molecular Cloning: A Laboratory Manual (Cold Spring Harbor Laboratory Press, New York, ed. 3, 2001) pg. A2.2, Retrieved from http://openwetware.org/wiki/LB) and 25 μl is added to microtiter wells. Bacteria (25 μl) are added (˜5×10^6 colony forming units/ml) in the same buffer. After a 3-hour incubation at 37° C., 150 μl of LB is added and the plates are incubated overnight. The OD at 600 nm is read on an ELISA plate reader. The minimum inhibitory concentration (MIC) is the lowest concentration allowing no bacterial growth. The IC50 is the concentration of peptide that results in 50% growth compared to the medium.
(§2) We now describe additional peptides and their activity. The peptides have been designed, synthesized, and have been tested for lysis of E. coli and S. typhimurium (gram negative bacteria), B. cereus (gram positive bacterium). Results are shown in Table 2 along with the amino acid sequence of the peptide. Changes from the naturally occurring sequence are underlined. In general, the desired result is lysis of bacteria at low concentration (<1 μM).
(§3) In Table 2, Columns 2-7 are the MIC and IC50 (concentration required for 50% inhibition of growth) for each organism (E. coli, Salmonella, and B. cereus). The MIC (minimum inhibitory concentration) was determined as described above, in a multiwell plate assay. […] L-isomer amino acids are designated by capital letters while D-isomer amino acids are designated by lower case letters.

Assay [2] relates to E. coli DH5a. It counts as cell-based. Particulars: DH5a, pH 7.2. The protocol:
as §1, §2, §3

In assay [3] the test system is Salmonella. It counts as cell-based, S. typhimurium. Particulars: pH 7.2. The protocol:
as §1, §2, §3

Bridge positions count the residues as written; N and C are the ends. Square brackets hold non-standard residues; d marks the D form. Peptide text beside a SMILES is read from it. Chg = N[C@H](C(=O)O)C1CCCCC1

On to `CSCC[C@@H]1NC(=O)[C@H](Cc2ccccc2)NC(=O)[C@H](CCCCN)NC(=O)[C@H](CCCCN)NC(=O)[C@H](CO)NC(=O)[C@H](C(C)C)NC(=O)[C@H](CCCCN)NC(=O)[C@H](CCCCN)NC(=O)[C@@H](N)CSSC[C@@H](C(N)=O)NC(=O)[C@H](CCCCN)NC(=O)[C@H](CCCCN)NC(=O)[C@H](CCSC)NC(=O)[C@H](Cc2ccccc2)NC(=O)[C@H](CCCCN)NC(=O)[C@H](CCCCN)NC(=O)[C@H](CO)NC(=O)[C@H](C(C)C)NC(=O)[C@H](CCCCN)NC(=O)[C@H](CCCCN)NC(=O)[C@H](CO)NC(=O)CNC(=O)[C@H](CCCCN)NC(=O)[C@H](CCCCN)NC1=O` [G11.31 CYC] (H-CKKVSKKFMKKGSKKVSKKFMKKC-NH2; disulfide 1-24; N-terminus assumed), for which, in assay [1], the “B. cereus MIC” value is 0.7 µM and the IC50 was determined as 400 nM. Besides, in assay [2], the “E. coli DH5a MIC” value is 0.61 µM and the midpoint of inhibition, the IC50, lay at 420 nM. Further, in assay [3], the concentration for half-maximal inhibition (IC50) was 410 nM and the “Salmonella MIC” value was determined as 0.7 µM.
On to `CSCC[C@H](NC(=O)[C@H](Cc1ccccc1)NC(=O)[C@H](CCCCN)NC(=O)[C@H](CCCCN)NC(=O)[C@H](CO)NC(=O)[C@@H](NC(=O)[C@H](CCCCN)NC(=O)[C@H](CCCCN)NC(=O)[C@H](CO)NC(=O)CNC(=O)[C@H](CCCCN)NC(=O)[C@H](CCCCN)NC(=O)[C@H](CCSC)NC(=O)[C@H](Cc1ccccc1)NC(=O)[C@H](CCCCN)NC(=O)[C@H](CCCCN)NC(=O)[C@H](CO)NC(=O)[C@@H](NC(=O)[C@H](CCCCN)NC(=O)[C@@H](N)CCCCN)C(C)C)C(C)C)C(=O)N[C@@H](CCCCN)C(=O)N[C@@H](CCCCN)C(=O)O` [Peptide G11.15], for which, in assay [1], the “B. cereus MIC” value is greater than 10 µM and the IC50 is 5850 nM. Besides, in assay [2], the “E. coli DH5a MIC” value stood at 1.38 µM and the IC50 came to 800 nM. Also, in assay [3], inhibition was half-maximal at 410 nM (IC50) and the “Salmonella MIC” value was 0.7 µM.
Regarding `CSCC[C@H](NC(=O)[C@H](Cc1ccccc1)NC(=O)[C@H](CCCNC(=N)N)NC(=O)[C@H](CCCNC(=N)N)NC(=O)[C@@H](NC(=O)[C@@H](NC(=O)[C@H](CCCNC(=N)N)NC(=O)[C@@H](N)CCCNC(=N)N)C(C)C)C1CCCCC1)C(=O)N[C@@H](CCCNC(=N)N)C(=O)N[C@@H](CCCNC(=N)N)C(=O)O` [Peptide G11.18, RRV-Chg-RRFMRR] (H-RRV[Chg]RRFMRR-OH; N-terminus and C-terminus assumed), in assay [1], the “B. cereus MIC” value was found to be 5.7 µM and the IC50 was 3510 nM. In assay [2], the “E. coli DH5a MIC” value was 5.65 µM and the midpoint of inhibition, the IC50, lay at 3400 nM. Moreover, in assay [3], 880 nM corresponded to half-maximal inhibition (IC50) and the “Salmonella MIC” value stood at 1.4 µM.
Consider `CSCC[C@@H](NC(=O)[C@@H](Cc1ccccc1)NC(=O)[C@@H](CCCNC(=N)N)NC(=O)[C@@H](CCCNC(=N)N)NC(=O)[C@@H](CO)NC(=O)[C@H](NC(=O)[C@@H](CCCNC(=N)N)NC(=O)[C@H](N)CCCNC(=N)N)C(C)C)C(=O)N[C@H](CCCNC(=N)N)C(=O)N[C@H](CCCNC(=N)N)C(=O)O` [Peptide G11.24, rrvsrrfmrr] (H-[dR][dR][dV][dS][dR][dR][dF][dM][dR][dR]-OH; N-terminus and C-terminus assumed), for which, in assay [1], the “B. cereus MIC” value is greater than 10 µM and the half-inhibitory concentration (IC50) was greater than 10000 nM. Moreover, in assay [2], the “E. coli DH5a MIC” value is 1.4 µM and the IC50 was determined as 850 nM. Moreover, in assay [3], inhibition was half-maximal at 850 nM (IC50) and the “Salmonella MIC” value came out at 1.4 µM.
With `CSCC[C@H](NC(=O)[C@H](Cc1ccccc1)NC(=O)[C@@H](CCCNC(=N)N)NC(=O)[C@@H](CCCNC(=N)N)NC(=O)[C@H](CO)NC(=O)[C@H](NC(=O)[C@@H](CCCNC(=N)N)NC(=O)[C@@H](N)CCCNC(=N)N)C(C)C)C(=O)N[C@H](CCCNC(=N)N)C(=O)N[C@@H](CCCNC(=N)N)C(=O)N[C@@H](CC(=O)O)C(N)=O` [Peptide G11.45, RrvSrrFMrRD] (H-R[dR][dV]S[dR][dR]FM[dR]RD-NH2; N-terminus assumed), in assay [1], the “B. cereus MIC” value is greater than 10 µM and the IC50 was greater than 10000 nM. For the same compound, in assay [2], the “E. coli DH5a MIC” value is greater than 10 µM and the IC50 was greater than 10000 nM. For the same compound, in assay [3], the IC50 was greater than 10000 nM and the “Salmonella MIC” value was greater than 10 µM.
On to `CSCC[C@H](NC(=O)[C@H](Cc1ccccc1)NC(=O)[C@@H](CCCNC(=N)N)NC(=O)[C@@H](CCCNC(=N)N)NC(=O)[C@H](CO)NC(=O)[C@@H](NC(=O)[C@@H](CCCNC(=N)N)NC(=O)[C@@H](CCCNC(=N)N)NC(=O)[C@@H](CCCNC(=N)N)NC(=O)[C@@H](CCCNC(=N)N)NC(=O)[C@@H](CCCNC(=N)N)NC(=O)[C@@H](CCCNC(=N)N)NC(=O)[C@@H](CCCNC(=N)N)NC(=O)[C@H](CCC(N)=O)NC(=O)[C@H](CC(C)C)NC(=O)[C@H](CCCCN)NC(=O)[C@H](CO)NC(=O)[C@H](CO)NC(=O)[C@H](Cc1c[nH]cn1)NC(=O)[C@H](CC(=O)O)NC(=O)CNC(=O)CNC(=O)[C@H](CC(=O)O)NC(=O)CNC(=O)CNC(=O)[C@@H](N)CC(=O)O)C(C)C)C(=O)N[C@H](CCCNC(=N)N)C(=O)N[C@H](CCCNC(=N)N)C(=O)O` [Peptide G11.47, DGGDGGDHSSKLQrrrrrrrVSrrFMrr] (H-DGGDGGDHSSKLQ[dR][dR][dR][dR][dR][dR][dR]VS[dR][dR]FM[dR][dR]-OH; N-terminus and C-terminus assumed), for which, in assay [1], the “B. cereus MIC” value came to 0.32 µM and the IC50 worked out at 100 nM. Also, in assay [2], the “E. coli DH5a MIC” value was determined as 0.18 µM and the IC50 was 100 nM. Besides, in assay [3], inhibition was half-maximal at 150 nM (IC50) and the “Salmonella MIC” value was determined as 0.45 µM.
For `CSCC[C@H](NC(=O)[C@H](Cc1ccccc1)NC(=O)[C@H](CCCNC(=N)N)NC(=O)[C@H](CCCNC(=N)N)NC(=O)[C@H](CO)NC(=O)[C@@H](NC(=O)[C@H](CCCNC(=N)N)NC(=O)[C@H](CCCNC(=N)N)NC(=O)[C@H](CS)NC(=O)[C@H](CS)NC(=O)[C@H](CCCNC(=N)N)NC(=O)[C@H](CCCNC(=N)N)NC(=O)[C@@H](NC(=O)[C@H](CO)NC(=O)[C@H](CCCNC(=N)N)NC(=O)[C@H](CCCNC(=N)N)NC(=O)[C@H](Cc1ccccc1)NC(=O)[C@H](CCSC)NC(=O)[C@H](CCCNC(=N)N)NC(=O)[C@@H](N)CCCNC(=N)N)C(C)C)C(C)C)C(=O)N[C@@H](CCCNC(=N)N)C(=O)N[C@@H](CCCNC(=N)N)C(=O)O` [Peptide G11.48] (H-RRMFRRSVRRCCRRVSRRFMRR-OH; N-terminus and C-terminus assumed), in assay [1], the “B. cereus MIC” value came out at 5.7 µM and the IC50 came out at 3550 nM. In assay [2], the “E. coli DH5a MIC” value was greater than 10 µM and the IC50 is 2100 nM. Further, in assay [3], the IC50 was greater than 10000 nM and the “Salmonella MIC” value is greater than 10 µM.
In the case of `CSCC[C@@H](NC(=O)[C@@H](Cc1ccccc1)NC(=O)[C@@H](CCCCN)NC(=O)[C@@H](CCCCN)NC(=O)[C@@H](CO)NC(=O)[C@H](NC(=O)[C@@H](CCCCN)NC(=O)[C@@H](CCCCN)NC(=O)[C@@H](CO)NC(=O)CNC(=O)[C@@H](CCCCN)NC(=O)[C@@H](CCCCN)NC(=O)[C@@H](CCSC)NC(=O)[C@@H](Cc1ccccc1)NC(=O)[C@@H](CCCCN)NC(=O)[C@@H](CCCCN)NC(=O)[C@@H](CO)NC(=O)[C@H](NC(=O)[C@@H](CCCCN)NC(=O)[C@H](N)CCCCN)C(C)C)C(C)C)C(=O)N[C@H](CCCCN)C(=O)N[C@H](CCCCN)C(=O)O` [Peptide G11.54, kkvskkfmkkgskkvskkfmkk], in assay [1], the “B. cereus MIC” value amounted to 0.35 µM and half-maximal inhibition (IC50) required 210 nM. Further, in assay [2], the “E. coli DH5a MIC” value is greater than 10 µM and the IC50 came out at 8250 nM. In assay [3], the IC50 was greater than 10000 nM and the “Salmonella MIC” value is greater than 10 µM.
Turning to `CSCC[C@@H](NC(=O)[C@@H](Cc1ccccc1)NC(=O)[C@@H](CCCCN)NC(=O)[C@@H](CCCCN)NC(=O)[C@@H](CO)NC(=O)[C@H](NC(=O)[C@@H](CCCCN)NC(=O)[C@@H](CCCCN)NC(=O)[C@@H](CO)NC(=O)CNC(=O)[C@@H](CCCCN)NC(=O)[C@@H](CCCCN)NC(=O)[C@@H](CCSC)NC(=O)[C@@H](Cc1ccccc1)NC(=O)[C@@H](CCCCN)NC(=O)[C@@H](CCCCN)NC(=O)[C@@H](CO)NC(=O)[C@H](NC(=O)[C@@H](CCCCN)NC(=O)[C@@H](CCCCN)NC(=O)[C@@H](CO)NC(=O)CNC(=O)[C@@H](CCCCN)NC(=O)[C@@H](CCCCN)NC(=O)[C@@H](CCSC)NC(=O)[C@@H](Cc1ccccc1)NC(=O)[C@@H](CCCCN)NC(=O)[C@@H](CCCCN)NC(=O)[C@@H](CO)NC(=O)[C@H](NC(=O)[C@@H](CCCCN)NC(=O)[C@H](N)CCCCN)C(C)C)C(C)C)C(C)C)C(=O)N[C@H](CCCCN)C(=O)N[C@H](CCCCN)C(=O)O` [Peptide G11.55, kkvskkfmkkgskkvskkfmkkgskkvskkfmkk] (H-[dK][dK][dV][dS][dK][dK][dF][dM][dK][dK]G[dS][dK][dK][dV][dS][dK][dK][dF][dM][dK][dK]G[dS][dK][dK][dV][dS][dK][dK][dF][dM][dK][dK]-OH; N-terminus and C-terminus assumed), in assay [1], the “B. cereus MIC” value was found to be 0.2 µM and it took 100 nM to reach half-maximal inhibition (IC50). Besides, in assay [2], the “E. coli DH5a MIC” value came to 4 µM and half-maximal inhibition (IC50) was put at 980 nM. Moreover, in assay [3], the concentration for half-maximal inhibition (IC50) was greater than 10000 nM and the “Salmonella MIC” value was greater than 10 µM.
